# Data taken from PubChem BioAssay (NCI).
# Where “and” joins values, the source holds several entries; their conditions need not be identical. Equal values may be shown once.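 Values below derive from 48-hour exposures of cells grown in 96-well plates, with endpoints linearly interpolated between the two concentrations bracketing the appropriate inhibition level. GI50: concentration for 50% inhibition of growth. TGI denotes the concentration required for complete inhibition of growth.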
# Legend:
# Test in all cases: inhibition of tumour cell growth, NCI panel, 48 h
# 786-0 renal = tested on: 786-0 renal
# A549 NSCLC = tested on: A549 NSCLC
# ACHN renal = tested on: ACHN renal
# BT-549 breast = tested on: BT-549 breast
# CAKI-1 renal = tested on: CAKI-1 renal
# COLO 205 colon = tested on: COLO 205 colon
# EKVX NSCLC = tested on: EKVX NSCLC
# HCC-2998 colon = tested on: HCC-2998 colon
# HCT-116 colon = tested on: HCT-116 colon
# HCT-15 colon = tested on: HCT-15 colon
# HL-60(TB) leukemia = tested on: HL-60(TB) leukemia
# HOP-62 NSCLC = tested on: HOP-62 NSCLC
# HOP-92 NSCLC = tested on: HOP-92 NSCLC
# HS 578T breast = tested on: HS 578T breast
# HT29 colon = tested on: HT29 colon
# IGROV1 ovarian = tested on: IGROV1 ovarian
# K-562 leukemia = tested on: K-562 leukemia
# KM12 colon = tested on: KM12 colon
# LOX IMVI melanoma = tested on: LOX IMVI melanoma
# M14 melanoma = tested on: M14 melanoma
# MALME-3M melanoma = tested on: MALME-3M melanoma
# MCF7 breast = tested on: MCF7 breast
# MDA-MB-231 breast = tested on: MDA-MB-231 breast
# MDA-MB-435 = tested on: MDA-MB-435
# MOLT-4 leukemia = tested on: MOLT-4 leukemia
# NCI-H226 lung = tested on: NCI-H226 lung
# NCI-H23 lung = tested on: NCI-H23 lung
# NCI-H460 lung = tested on: NCI-H460 lung
# NCI-H522 lung = tested on: NCI-H522 lung
# NCI/ADR-RES ovarian = tested on: NCI/ADR-RES ovarian
# OVCAR-4 ovarian = tested on: OVCAR-4 ovarian
# OVCAR-5 ovarian = tested on: OVCAR-5 ovarian
# OVCAR-8 ovarian = tested on: OVCAR-8 ovarian
# PC-3 prostate = tested on: PC-3 prostate
# RPMI-8226 leukemia = tested on: RPMI-8226 leukemia
# RXF 393 renal = tested on: RXF 393 renal
# SF-268 CNS = tested on: SF-268 CNS
# SF-295 CNS = tested on: SF-295 CNS
# SF-539 CNS = tested on: SF-539 CNS
# SK-MEL-2 melanoma = tested on: SK-MEL-2 melanoma
# SK-MEL-28 melanoma = tested on: SK-MEL-28 melanoma
# SK-MEL-5 melanoma = tested on: SK-MEL-5 melanoma
# SK-OV-3 ovarian = tested on: SK-OV-3 ovarian
# SN12C renal = tested on: SN12C renal
# SNB-19 CNS = tested on: SNB-19 CNS
# SNB-75 CNS = tested on: SNB-75 CNS
# SR leukemia = tested on: SR leukemia
# SW-620 colon = tested on: SW-620 colon
# T-47D breast = tested on: T-47D breast
# TK-10 renal = tested on: TK-10 renal
# U251 CNS = tested on: U251 CNS
# UACC-257 melanoma = tested on: UACC-257 melanoma
# UACC-62 melanoma = tested on: UACC-62 melanoma
# UO-31 renal = tested on: UO-31 renal
# CCRF-CEM leukemia = tested on: CCRF-CEM leukemia
# DU-145 prostate = tested on: DU-145 prostate
# OVCAR-3 ovarian = tested on: OVCAR-3 ovarian
compound,measurement,setting,value
COC(=O)/C=C\S/C(=C(/c1ccccc1)n1ccc(C(=O)OC)n1)c1ccccc1,TGI,786-0 renal,36.6 µM
same,TGI,A549 NSCLC,> 100 µM
same,TGI,ACHN renal,20.1 µM
same,TGI,BT-549 breast,> 100 µM
same,TGI,CAKI-1 renal,> 100 µM
same,TGI,COLO 205 colon,> 100 µM
same,TGI,EKVX NSCLC,> 100 µM
same,TGI,HCC-2998 colon,> 100 µM
same,TGI,HCT-116 colon,> 100 µM
same,TGI,HCT-15 colon,> 100 µM
same,TGI,HL-60(TB) leukemia,> 100 µM
same,TGI,HOP-62 NSCLC,50.4 µM
same,TGI,HOP-92 NSCLC,86.2 µM
same,TGI,HS 578T breast,48 µM
same,TGI,HT29 colon,> 100 µM
same,TGI,IGROV1 ovarian,> 100 µM
same,TGI,K-562 leukemia,> 100 µM
same,TGI,KM12 colon,> 100 µM
same,TGI,LOX IMVI melanoma,> 100 µM
same,TGI,M14 melanoma,> 100 µM
same,TGI,MALME-3M melanoma,43.9 µM
same,TGI,MCF7 breast,28.7 µM
same,TGI,MDA-MB-231 breast,70.9 µM
same,TGI,MDA-MB-435,> 100 µM
same,TGI,MOLT-4 leukemia,> 100 µM
same,TGI,NCI-H226 lung,> 100 µM
same,TGI,NCI-H23 lung,> 100 µM
same,TGI,NCI-H460 lung,> 100 µM
same,TGI,NCI-H522 lung,48 µM
same,TGI,NCI/ADR-RES ovarian,> 100 µM
same,TGI,OVCAR-4 ovarian,> 100 µM
same,TGI,OVCAR-5 ovarian,> 100 µM
same,TGI,OVCAR-8 ovarian,> 100 µM
same,TGI,PC-3 prostate,49.7 µM
same,TGI,RPMI-8226 leukemia,> 100 µM
same,TGI,RXF 393 renal,39.8 µM
same,TGI,SF-268 CNS,39.4 µM
same,TGI,SF-295 CNS,> 100 µM
same,TGI,SF-539 CNS,> 100 µM
same,TGI,SK-MEL-2 melanoma,59.5 µM
same,TGI,SK-MEL-28 melanoma,> 100 µM
same,TGI,SK-MEL-5 melanoma,> 100 µM
same,TGI,SK-OV-3 ovarian,50.8 µM
same,TGI,SN12C renal,> 100 µM
same,TGI,SNB-19 CNS,42.2 µM
same,TGI,SNB-75 CNS,24 µM
same,TGI,SR leukemia,> 100 µM
same,TGI,SW-620 colon,> 100 µM
same,TGI,T-47D breast,> 100 µM
same,TGI,TK-10 renal,> 100 µM
same,TGI,U251 CNS,38.2 µM
same,TGI,UACC-257 melanoma,> 100 µM
same,TGI,UACC-62 melanoma,10.3 µM
same,TGI,UO-31 renal,38.7 µM
CC(=O)O[C@H]1C(=O)[C@@]2(C)[C@H]([C@H](OC(=O)c3ccccc3)[C@]3([O-])C[C@H](OC(=O)[C@H]([O-])[C@@H](NC(=O)c4ccccc4)c4ccccc4)C(C)=C1C3(C)C)[C@]1(OC(C)=O)CO[C@@H]1C[C@@H]2[O-].[Fe+3],GI50,786-0 renal,0.261 µM and 2.24 µM
same,TGI,786-0 renal,49.1 µM and > 100 µM
same,GI50,A549 NSCLC,0.0335 µM and 0.0852 µM
same,TGI,A549 NSCLC,65 µM and > 100 µM
same,GI50,ACHN renal,2.48 µM and 2.96 µM
same,TGI,ACHN renal,65 µM and > 100 µM
same,GI50,BT-549 breast,0.309 µM
same,GI50,CAKI-1 renal,2.41 µM and 3.53 µM
same,TGI,CAKI-1 renal,54.5 µM and > 100 µM
same,GI50,CCRF-CEM leukemia,0.249 µM and 0.876 µM
same,TGI,CCRF-CEM leukemia,65 µM and 68.9 µM
same,GI50,COLO 205 colon,0.0365 µM and 0.0432 µM
same,TGI,COLO 205 colon,0.226 µM and 0.508 µM
same,GI50,DU-145 prostate,0.068 µM and 0.0595 µM
same,TGI,DU-145 prostate,0.272 µM and 0.595 µM
same,TGI,EKVX NSCLC,65 µM and > 100 µM
same,GI50,HCC-2998 colon,0.0365 µM
same,TGI,HCC-2998 colon,0.295 µM
same,GI50,HCT-116 colon,0.0253 µM and 0.0388 µM
same,GI50,HCT-15 colon,1.97 µM and 2.33 µM
same,TGI,HCT-15 colon,16.2 µM and 17 µM
same,GI50,HL-60(TB) leukemia,0.0639 µM
same,TGI,HL-60(TB) leukemia,0.301 µM
same,TGI,HOP-62 NSCLC,10.5 µM and 48.8 µM
same,GI50,HOP-92 NSCLC,> 65 µM and 10.5 µM
same,TGI,HOP-92 NSCLC,> 65 µM and 35.7 µM
same,GI50,HS 578T breast,0.0562 µM and 0.141 µM
same,GI50,HT29 colon,0.0236 µM and 0.0328 µM
same,GI50,IGROV1 ovarian,0.0426 µM and 0.211 µM
same,TGI,IGROV1 ovarian,65 µM and 72.5 µM
same,GI50,K-562 leukemia,0.0839 µM and 0.0988 µM
same,TGI,K-562 leukemia,65 µM and > 100 µM
same,GI50,KM12 colon,0.0324 µM and 0.0623 µM
same,TGI,KM12 colon,0.21 µM and 1.21 µM
same,GI50,LOX IMVI melanoma,0.0219 µM and 0.107 µM
same,GI50,M14 melanoma,0.11 µM and 0.0637 µM
same,TGI,M14 melanoma,0.491 µM and 0.391 µM
same,GI50,MCF7 breast,0.0226 µM and 0.0315 µM
same,TGI,MCF7 breast,65 µM and 32.7 µM
same,GI50,MDA-MB-231 breast,0.746 µM and 0.732 µM
same,TGI,MDA-MB-231 breast,63.9 µM and 32.2 µM
same,TGI,MOLT-4 leukemia,65 µM and > 100 µM
same,GI50,NCI-H226 lung,0.227 µM and 0.768 µM
same,TGI,NCI-H226 lung,65 µM and 70.7 µM
same,GI50,NCI-H23 lung,0.0685 µM and 0.164 µM
same,TGI,NCI-H23 lung,65 µM and > 100 µM
same,GI50,NCI-H460 lung,0.0266 µM and 0.0498 µM
same,TGI,NCI-H460 lung,65 µM and 25.5 µM
same,GI50,NCI-H522 lung,0.0385 µM
same,TGI,NCI-H522 lung,12.8 µM
same,GI50,NCI/ADR-RES ovarian,19.2 µM
same,TGI,NCI/ADR-RES ovarian,15.9 µM and > 100 µM
same,GI50,OVCAR-3 ovarian,0.0215 µM and 0.0434 µM
same,GI50,OVCAR-4 ovarian,0.719 µM
same,TGI,OVCAR-4 ovarian,> 100 µM
same,GI50,OVCAR-5 ovarian,0.88 µM
same,TGI,OVCAR-5 ovarian,11.1 µM and > 100 µM
same,GI50,OVCAR-8 ovarian,0.0971 µM and 0.0721 µM
same,TGI,OVCAR-8 ovarian,15.5 µM and 27.3 µM
same,GI50,PC-3 prostate,0.235 µM and 0.219 µM
same,TGI,PC-3 prostate,65 µM and > 100 µM
same,GI50,RPMI-8226 leukemia,0.0294 µM and 0.074 µM
same,TGI,RPMI-8226 leukemia,65 µM and > 100 µM
same,GI50,RXF 393 renal,0.117 µM and 0.0955 µM
same,GI50,SF-268 CNS,0.104 µM and 0.165 µM
same,TGI,SF-268 CNS,45.3 µM and > 100 µM
same,GI50,SF-295 CNS,0.0836 µM
same,TGI,SF-295 CNS,> 100 µM
same,GI50,SF-539 CNS,0.029 µM and 0.0519 µM
same,TGI,SF-539 CNS,0.549 µM and 0.486 µM
same,GI50,SK-MEL-2 melanoma,0.11 µM and 0.161 µM
same,GI50,SK-MEL-28 melanoma,13.2 µM
same,TGI,SK-MEL-28 melanoma,64.8 µM
same,GI50,SK-MEL-5 melanoma,0.0521 µM and 0.0683 µM
same,TGI,SK-MEL-5 melanoma,65 µM and 19.6 µM
same,GI50,SK-OV-3 ovarian,0.0724 µM and 0.142 µM
same,TGI,SK-OV-3 ovarian,11.9 µM and > 100 µM
same,TGI,SN12C renal,65 µM and > 100 µM
same,GI50,SNB-19 CNS,0.281 µM and 0.534 µM
same,TGI,SNB-19 CNS,65 µM and > 100 µM
same,GI50,SNB-75 CNS,0.0222 µM and 0.023 µM
same,TGI,SNB-75 CNS,0.274 µM and 0.505 µM
same,GI50,SR leukemia,0.0268 µM and 0.199 µM
same,GI50,SW-620 colon,0.0352 µM and 0.0664 µM
same,TGI,SW-620 colon,19.2 µM and 47.4 µM
same,GI50,T-47D breast,0.0802 µM and 0.0744 µM
same,TGI,T-47D breast,65 µM and 95.7 µM
same,GI50,TK-10 renal,0.591 µM and 0.658 µM
same,TGI,TK-10 renal,65 µM and > 100 µM
same,GI50,U251 CNS,0.0357 µM and 0.0647 µM
same,TGI,U251 CNS,7.38 µM and 17.2 µM
same,TGI,UACC-257 melanoma,65 µM and > 100 µM
same,GI50,UACC-62 melanoma,0.238 µM and 0.0875 µM
same,TGI,UACC-62 melanoma,65 µM and 15.8 µM
same,GI50,UO-31 renal,4.45 µM and 4.87 µM
same,TGI,UO-31 renal,65 µM and > 100 µM
